Test results reported in patent US10864207B2, “Method of treating endothelial dysfunction” (Celagenex Research (India) Pvt. Ltd., priority 2019, dated 2020).

Tests used:
PGI2 gene = PGI2 gene expression by semi-quantitative RT-PCR in H9C2 cells; format: cell-based, rat; details: for PGI2 expression in % / Regulation in Terms of Folds PGI2: normalized to GAPDH; for Regulation in Terms of Folds PGI2: control = 1.00
Method: […] […] [Hunter C. Champion et al. PNAS, 2005; 102:5:1661-1666].
PGI2 were estimated for the test substance by gene expression method, where the level of expression of PGI2 expression on Rat Cardiomyocytes (H9C2) was determined with respect to untreated H9C2 cells.
(§1) The H9C2 cells treated with drug were subjected to cell lysis by treating with Tri-extraction reagent. Chloroform was added, to isolate the total RNA from the sample and subjected for centrifugation. Out of the three distinct layers observed, upper layer was collected in fresh tube and equal volume of isopropanol was added and incubated at −20° C. for 10 mins. After the incubation followed by centrifugation, appropriate volume of ethanol was added to resuspend the pellet. After incubation and centrifugation, the pellet was air dried and appropriate volume of TAE buffer was added. The isolated total RNA was further used for cDNA synthesis. cDNA was synthesized by priming with oligo-dT primers followed by reverse transcriptase enzyme treatment according to manufacturers protocol (Thermoscienctific). The cDNA thus synthesized was taken up for PCR for the amplification of PGI2 and GAPDH/β-Actin (internal control).
(§2) The mRNA expression levels of PGI2 were determined using semi-quantitative reverse transcriptase-polymerase chain reaction (RT-PCR). 50 μl of the reaction mixture was subjected to PCR for amplification of PGI2. cDNAs using specifically designed primers procured from Eurofins, India and GAPDH/β-Actin (House keeping genes) was co-amplified with each reaction as an internal control.
(§3) PGI2: 95° C. for 5 min followed by 35 cycles of denaturation at 95° C. for 30 seconds, annealing Tm for 30 seconds and extension at 72° C. for 45 seconds. This was followed by final extension at 72° C. for 10 min. The primers used in this example for I strand synthesis and IInd strand synthesis are disclosed in priority Indian Patent Application No. 201921000093, filed Jan. 2, 2019, which is incorporated herein by reference.

eNOS gene = eNOS gene expression by semi-quantitative RT-PCR in H9C2 cells; format: cell-based, rat; details: for eNOS expression in % / Regulation in Terms of Folds eNOS: normalized to β-Actin; for Regulation in Terms of Folds eNOS: control = 1.00
Method: The test substances were evaluated for their gene expression activity in H9C2 (rat cardiomyocytes) and the concentration of test substances (G1, G2 and G3) taken for gene expression studies was 500 μg/ml. […] [Hunter C. Champion, et al. “PNAS, 2005; 102:5:1661-1666.]
eNOS levels were estimated for the test substance by gene expression method, where the level of expression of eNOS expression on […] Cardiomyocytes (H9C2) was determined with respect to untreated H9C2 cells.
as §1, with “test samples” for “drug”, “added” for “added,”, “manufacturer's” for “manufacturers”, “eNOS” for “PGI2”, “GAPDH” for “GAPDH/β-Actin”
as §2, with “eNOS” for “PGI2”, “eNOS.” for “PGI2.”
as §3, with “eNOS:” for “PGI2:”, “temperature” for “Tm”

| Structure (SMILES) | PGI2 gene expression increase as compared to the control (PGI2 gene; 500 μg/ml) [folds] | PGI2 expression in % (PGI2 gene; 500 μg/ml) [%] | Regulation in Terms of Folds PGI2 (PGI2 gene; 500 μg/ml) [fold] | eNOS expression in % (eNOS gene; 500 μg/ml) [%] | Regulation in Terms of Folds eNOS (eNOS gene; 500 μg/ml) [fold] | eNOS gene over-expression as compared to the control (eNOS gene; at tested doses (500 μg/ml)) [folds] | PGI2 expression in % (PGI2 gene; 250 μg/ml) [%] | Regulation in Terms of Folds PGI2 (PGI2 gene; 250 μg/ml) [fold] | eNOS expression in % (eNOS gene; 250 μg/ml) [%] | Regulation in Terms of Folds eNOS (eNOS gene; 250 μg/ml) [fold] | eNOS gene up-regulation over control (eNOS gene; standard sample (250 μg/ml)) [fold] |
| --- | --- | --- | --- | --- | --- | --- | --- | --- | --- | --- | --- |
| C[n+]1cccc(C(N)=O)c1 [Group G1, N^1-methyl nicotinamide chloride] | 0.14 | 14 | 1.14 | 21 | 1.21 | 0.21 |  |  |  |  |  |
| O=[N+]([O-])OCC(CO[N+](=O)[O-])O[N+](=O)[O-] [Nitroglycerin, reference compound] |  |  |  |  |  |  | 29 | 1.29 | 56 | 1.56 | 0.56 |
